Counter-ions that a name gives are not always drawn.
Molecular target: T1, human transferrin (hTf) (Homo sapiens, UniProt P02787)
T1 construct: gene TF
Experiment: intrinsic fluorescence quenching, modified Stern-Volmer
Format: binding
Details: pH 7.4, 50 mM sodium phosphate, 301 K, 4 uM hTf, excitation 280 nm, n = 0.99; double-log
From the text: intrinsic fluorescence quenching, modified Stern-Volmer on human transferrin (hTf)

T1 sequence (P02787 20-698): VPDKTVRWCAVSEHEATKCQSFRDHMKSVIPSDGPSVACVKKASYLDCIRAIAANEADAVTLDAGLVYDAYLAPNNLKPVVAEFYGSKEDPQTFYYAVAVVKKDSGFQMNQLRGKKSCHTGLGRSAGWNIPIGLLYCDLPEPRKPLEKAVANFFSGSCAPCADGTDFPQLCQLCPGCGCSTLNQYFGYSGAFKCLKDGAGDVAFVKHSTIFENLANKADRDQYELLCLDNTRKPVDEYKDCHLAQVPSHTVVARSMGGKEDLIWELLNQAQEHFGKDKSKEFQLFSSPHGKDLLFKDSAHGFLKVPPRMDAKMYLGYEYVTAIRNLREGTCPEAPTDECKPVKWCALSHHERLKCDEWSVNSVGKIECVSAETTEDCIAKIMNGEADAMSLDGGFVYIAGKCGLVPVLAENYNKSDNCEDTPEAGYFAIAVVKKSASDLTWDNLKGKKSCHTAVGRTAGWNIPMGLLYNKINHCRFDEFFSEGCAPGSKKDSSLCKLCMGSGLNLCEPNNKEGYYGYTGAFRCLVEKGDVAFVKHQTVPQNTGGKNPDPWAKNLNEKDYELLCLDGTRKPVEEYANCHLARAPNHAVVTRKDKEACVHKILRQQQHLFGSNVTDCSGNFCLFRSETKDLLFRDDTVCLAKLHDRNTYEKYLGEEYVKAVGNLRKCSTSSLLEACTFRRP

## CCN(C)C(=O)Oc1cccc([C@H](C)N(C)C)c1 [Rivastigmine tartrate]
  K (10^4 M^-1): 5.3 10^4 M^-1

From publication PMC6770857, “Unraveling Binding Mechanism of Alzheimer’s Drug Rivastigmine Tartrate with Human Transferrin: Molecular Docking and Multi-Spectroscopic Approach towards Neurodegenerative Diseases” (Biomolecules, 2019)
